The text below walks through data of patent US9796711B2, “Substituted pyrazolo[3,4-b]pyridin-6-carboxylic acids and method of use” (AbbVie S.àr.l., priority 2015, dated 2017).

For assay [1], the target named is T1, ΔF508-CFTR (Homo sapiens, UniProt P13569, DEL508-508).
T1 construct: host or cells: CFBE41o-, doxycycline-inducible
The assay can be described thus: CFTR cell surface levels using HRP-tagged ΔF508-CFTR expressing CFBE cells, in the presence of a co-corrector. It is filed as cell-based. To be noted: HRP-tagged ΔF508-CFTR expressing CFBE cells, in the presence of 3 μM co-corrector; for EC50: read-out: EC50. The method in brief:
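Cells were seeded with 0.5 μg/mL doxycycline and held 68 h at 37 °C. Test compounds plus 3 μM co-corrector (final 0.1% DMSO) were then added for 20 h at 33 °C. Washed cells received HRP substrate, and luminescence was normalized between DMSO and 3 μM co-corrector controls.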

Assay [2] deals with T1, ΔF508-CFTR. The assay can be described thus: CFTR cell surface levels using HRP-tagged ΔF508-CFTR expressing CFBE cells, intrinsic corrector capacity. It is filed as cell-based. To be noted: for EC50: read-out: EC50. The procedure, abridged:
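Here the cells express ΔF508-CFTR with horseradish peroxidase inserted in extracellular loop 4, so only rescued channel at the surface gives luminescent signal. Compounds act on their own, 20 h at the reduced temperature of 33 °C; values are percent activity relative to DMSO and a 3 μM corrector.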

[3] abbreviates: HRP-tagged ΔF508-CFTR expressing CFBE cells, intrinsic corrector capacity (no co-corrector), 33° C., 20 hours.
The mark [4] stands for this setting: HRP-tagged ΔF508-CFTR CFBE41o- cells, compounds alone (intrinsic corrector capacity), 20 hours at 33° C., positive control 3 μM corrector.
[5] abbreviates: HRP-tagged ΔF508-CFTR CFBE41o- cells, compounds alone (intrinsic corrector capacity), 20 hours at 33° C.
The mark [6] stands for this setting: HRP-tagged ΔF508-CFTR CFBE cells, compound alone (intrinsic corrector capacity), 20 hours at 33° C.

T1 sequence (P13569 with tags, fused parts or gaps DEL508-508): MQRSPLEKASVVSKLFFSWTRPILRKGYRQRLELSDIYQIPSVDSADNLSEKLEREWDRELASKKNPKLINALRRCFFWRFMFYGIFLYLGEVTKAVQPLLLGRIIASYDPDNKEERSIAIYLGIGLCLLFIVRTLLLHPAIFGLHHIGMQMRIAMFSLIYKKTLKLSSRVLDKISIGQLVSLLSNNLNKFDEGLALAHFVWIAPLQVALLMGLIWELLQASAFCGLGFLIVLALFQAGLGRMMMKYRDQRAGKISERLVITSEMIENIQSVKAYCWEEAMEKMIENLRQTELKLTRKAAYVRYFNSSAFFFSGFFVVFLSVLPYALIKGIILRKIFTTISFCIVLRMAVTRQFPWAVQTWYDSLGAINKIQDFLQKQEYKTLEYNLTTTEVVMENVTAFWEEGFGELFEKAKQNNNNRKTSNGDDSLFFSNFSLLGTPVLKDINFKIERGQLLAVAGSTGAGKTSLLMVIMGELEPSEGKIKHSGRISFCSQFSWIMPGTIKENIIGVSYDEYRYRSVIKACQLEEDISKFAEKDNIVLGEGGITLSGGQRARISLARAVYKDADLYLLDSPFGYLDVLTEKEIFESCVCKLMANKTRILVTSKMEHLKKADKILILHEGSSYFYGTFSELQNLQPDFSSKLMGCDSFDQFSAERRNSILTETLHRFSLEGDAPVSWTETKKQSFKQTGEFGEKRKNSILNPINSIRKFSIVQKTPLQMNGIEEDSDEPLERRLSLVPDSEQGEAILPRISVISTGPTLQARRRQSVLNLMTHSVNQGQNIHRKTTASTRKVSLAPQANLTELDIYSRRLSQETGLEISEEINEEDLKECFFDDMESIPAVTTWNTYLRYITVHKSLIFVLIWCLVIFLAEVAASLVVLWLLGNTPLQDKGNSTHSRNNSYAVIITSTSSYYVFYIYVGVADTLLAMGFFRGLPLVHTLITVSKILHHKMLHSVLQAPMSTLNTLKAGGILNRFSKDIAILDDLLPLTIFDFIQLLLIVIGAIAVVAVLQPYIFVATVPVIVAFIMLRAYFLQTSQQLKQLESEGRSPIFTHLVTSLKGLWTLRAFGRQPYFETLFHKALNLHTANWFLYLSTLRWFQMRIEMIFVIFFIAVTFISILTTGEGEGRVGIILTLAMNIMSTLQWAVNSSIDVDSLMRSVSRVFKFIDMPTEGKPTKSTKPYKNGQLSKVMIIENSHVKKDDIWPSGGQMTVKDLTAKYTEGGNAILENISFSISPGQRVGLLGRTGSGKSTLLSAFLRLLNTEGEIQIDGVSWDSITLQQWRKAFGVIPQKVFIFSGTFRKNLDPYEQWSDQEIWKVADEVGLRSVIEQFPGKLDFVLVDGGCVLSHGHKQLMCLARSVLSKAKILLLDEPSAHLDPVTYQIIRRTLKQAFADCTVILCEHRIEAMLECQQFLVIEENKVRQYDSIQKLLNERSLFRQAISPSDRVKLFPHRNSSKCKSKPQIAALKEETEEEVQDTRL

The term EC50 denotes the concentration needed to bring the measured effect to its halfway point. In the case of `O=C(O)c1cc(N2CCN(CCCN3CCOCC3)CC2)c2c(C3CCC3)nn(-c3ccccc3)c2n1` [compound 558, 3-cyclobutyl-4-{4-[3-(morpholin-4-yl)propyl]piperazin-1-yl}-1-phenyl-1H-pyrazolo[3,4-b]pyridine-6-carboxylic acid], at ΔF508-CFTR [1], the “% Activation” value turned out to be 322.5% and the EC50 amounted to 778 nM. Besides, at ΔF508-CFTR [2] (setting [3]), the “% Activation” value came out at 121.3% and the EC50 amounted to 1370 nM.

As for `CC1(COc2cc(C(=O)O)nc3c2c(C2CCC2)nn3-c2ccccc2)CC(F)(F)C1` [compound 476, 3-cyclobutyl-4-[(3,3-difluoro-1-methylcyclobutyl)methoxy]-1-phenyl-1H-pyrazolo[3,4-b]pyridine-6-carboxylic acid], the figures for the “% Activation” value on ΔF508-CFTR [1] and at ΔF508-CFTR [2] (setting [3]) were 297.8% and 121.45%, respectively. Besides, the EC50 on ΔF508-CFTR [1] came out at 386 nM; on ΔF508-CFTR [2] (setting [3]), 513 nM.

`CC(C)c1nn(C2CCCCC2)c2nc(C(=O)O)cc(-c3cn[nH]c3)c12` [compound 363, 1-cyclohexyl-3-(propan-2-yl)-4-(1H-pyrazol-4-yl)-1H-pyrazolo[3,4-b]pyridine-6-carboxylic acid]: the “% Activation” value stood at 187.2% on ΔF508-CFTR [1] and 56.625% at ΔF508-CFTR [2] (setting [4]). Besides, the values for the EC50 on ΔF508-CFTR [1] and on ΔF508-CFTR [2] (setting [5]) were 2330 nM and 2470 nM, respectively.

For the molecule `CN1C(=O)CO[C@H]2CN(c3cc(C(=O)O)nc4c3c(C3CCC3)nn4-c3ccccc3)C[C@@H]21` [compound 516, 3-cyclobutyl-4-[(4aS,7aS)-4-methyl-3-oxohexahydropyrrolo[3,4-b][1,4]oxazin-6 (2H)-yl]-1-phenyl-1H-pyrazolo[3,4-b]pyridine-6-carboxylic acid], on ΔF508-CFTR [1], the “% Activation” value stood at 275.5% and the EC50 is 723 nM. At ΔF508-CFTR [2] (setting [3]), the “% Activation” value came out at 123.4% and the concentration giving a half-maximal response (EC50) is 1110 nM.

On to `CC(C)c1nn(-c2cc(F)cc(F)c2)c2nc(C(=O)O)cc(-c3ccc(N(C)C4CCOCC4)cc3)c12` [compound 245, 1-(3,5-difluorophenyl)-4-{4-[methyl(oxan-4-yl)amino]phenyl}-3-(propan-2-yl)-1H-pyrazolo[3,4-b]pyridine-6-carboxylic acid], for which the “% Activation” value on ΔF508-CFTR [1] is on record as 508.37%; on ΔF508-CFTR [2] (setting [4]) it was 267.15%. For the same molecule, the EC50 at ΔF508-CFTR [1] came to 627 nM; on ΔF508-CFTR [2] (setting [5]), 777 nM.

With `CCOC(=O)N1CCN(c2cc(C(=O)O)nc3c2c(C2CCC2)nn3-c2ccc(F)cc2)CC1` [compound 929, 3-cyclobutyl-4-[4-(ethoxycarbonyl)piperazin-1-yl]-1-(4-fluorophenyl)-1H-pyrazolo[3,4-b]pyridine-6-carboxylic acid], the “% Activation” value is recorded as 560% at ΔF508-CFTR [1] and 474.3% at ΔF508-CFTR [2] (setting [6]). The figures for the EC50 on ΔF508-CFTR [1] and on ΔF508-CFTR [2] (setting [6]) were 83.2 nM and 181 nM, respectively.

As for `CN(C)Cc1nn(-c2ccccc2)c2nc(C(=O)O)cc(-c3ccc(N4CCOCC4)cc3)c12` [compound 87, 3-[(dimethylamino)methyl]-4-[4-(morpholin-4-yl)phenyl]-1-phenyl-1H-pyrazolo[3,4-b]pyridine-6-carboxylic acid], the “% Activation” value on ΔF508-CFTR [1] stood at 148.9%; on ΔF508-CFTR [2] (setting [4]), 28.91%. Moreover, the EC50 at ΔF508-CFTR [1] is 3340 nM; on ΔF508-CFTR [2] (setting [5]), over 10000 nM.

On to `COCC1CCCN(c2cc(C(=O)O)nc3c2c(C2CCC2)nn3-c2ccccc2)C1` (stereo not shown) [compound 373, 3-cyclobutyl-4-[3-(methoxymethyl)piperidin-1-yl]-1-phenyl-1H-pyrazolo[3,4-b]pyridine-6-carboxylic acid], for which the results for the “% Activation” value at ΔF508-CFTR [1] and on ΔF508-CFTR [2] (setting [4]) were 306.9% and 126.3%, respectively. For the same molecule, the EC50 at ΔF508-CFTR [1] worked out at 304 nM; at ΔF508-CFTR [2] (setting [5]) it was 469 nM.

Regarding `Cc1nn(-c2ccccc2)c2nc(C(=O)O)cc(O[C@H]3C[C@H](N4CCCCC4)C3)c12` [compound 345, 3-methyl-1-phenyl-4-{[trans-3-(piperidin-1-yl)cyclobutyl]oxy}-1H-pyrazolo[3,4-b]pyridine-6-carboxylic acid], the “% Activation” value came out at 129.4% on ΔF508-CFTR [1] and 23.411% on ΔF508-CFTR [2] (setting [4]). In addition, the EC50 on ΔF508-CFTR [1] and on ΔF508-CFTR [2] (setting [5]) was 4170 nM throughout.

As for `Cc1nn(-c2ccccc2)c2nc(C(=O)O)cc(OCC3CCCC3(F)F)c12` (stereo not shown) [compound 389, 4-[(2,2-difluorocyclopentyl)methoxy]-3-methyl-1-phenyl-1H-pyrazolo[3,4-b]pyridine-6-carboxylic acid], the results for the “% Activation” value at ΔF508-CFTR [1] and on ΔF508-CFTR [2] (setting [4]) were 280.6% and 101.73%, respectively. For the same molecule, the values for the EC50 on ΔF508-CFTR [1] and on ΔF508-CFTR [2] (setting [5]) were 1290 nM and 1670 nM, respectively.

Regarding `N#CC1CCN(c2ccc(-c3cc(C(=O)O)nc4c3c(OC3CCOC3)nn4-c3ccccc3)cn2)CC1` (stereo not shown) [compound 591, 4-[6-(4-cyanopiperidin-1-yl)pyridin-3-yl]-3-[(oxolan-3-yl)oxy]-1-phenyl-1H-pyrazolo[3,4-b]pyridine-6-carboxylic acid], at ΔF508-CFTR [1], the “% Activation” value is reported as 286.4% and the EC50 worked out at 450 nM. On ΔF508-CFTR [2] (setting [3]), the “% Activation” value amounted to 106.3% and the concentration giving a half-maximal response (EC50) worked out at 926 nM.

As to `O=C(O)c1cc(N2CCC3(CCCC3)CC2)c2c(C3CCC3)nn(-c3ccccc3)c2n1` [compound 452, 4-(8-azaspiro[4.5]decan-8-yl)-3-cyclobutyl-1-phenyl-1H-pyrazolo[3,4-b]pyridine-6-carboxylic acid], on ΔF508-CFTR [1], the “% Activation” value was found to be 282.3% and the EC50 stood at 1110 nM. For the same molecule, at ΔF508-CFTR [2] (setting [3]), the “% Activation” value was determined as 74.98% and the EC50 was found to be 1110 nM.

For `COC1CCCN(c2cc(C(=O)O)nc3c2c(C(C)C)nn3-c2cccc(C)c2)C1` (stereo not shown) [compound 190, 4-(3-methoxypiperidin-1-yl)-1-(3-methylphenyl)-3-(propan-2-yl)-1H-pyrazolo[3,4-b]pyridine-6-carboxylic acid], the “% Activation” value at ΔF508-CFTR [1] is 301.85%; at ΔF508-CFTR [2] (setting [4]) it was 136.12%. The values for the EC50 at ΔF508-CFTR [1] and at ΔF508-CFTR [2] (setting [5]) were 634 nM and 929 nM, respectively.

Take `O=C(O)c1cc(N2C[C@H](O)[C@@H](O)C2)c2c(C3CCC3)nn(-c3ccccc3)c2n1` [compound 446, 3-cyclobutyl-4-[(3S,4S)-3,4-dihydroxypyrrolidin-1-yl]-1-phenyl-1H-pyrazolo[3,4-b]pyridine-6-carboxylic acid]: on ΔF508-CFTR [1], the “% Activation” value amounted to 171.35% and the EC50 was determined as 3340 nM. Further, on ΔF508-CFTR [2] (setting [3]), the “% Activation” value was determined as 20.695% and the EC50 is over 10000 nM.

As to `COCCN(C)c1ncc(-c2cc(C(=O)O)nc3c2c(C(C)C)nn3C2CCCCC2)cn1` [compound 237, 1-cyclohexyl-4-{2-[(2-methoxyethyl)(methyl)amino]pyrimidin-5-yl}-3-(propan-2-yl)-1H-pyrazolo[3,4-b]pyridine-6-carboxylic acid], the “% Activation” value on ΔF508-CFTR [1] was 372.97%; at ΔF508-CFTR [2] (setting [4]), 227%. The EC50 at ΔF508-CFTR [1] amounted to 324 nM; at ΔF508-CFTR [2] (setting [5]), 510 nM.

Turning to `CC(C)c1nn(-c2ccc(F)cc2)c2nc(C(=O)O)cc(N3CCC4(CC3)OCCO4)c12` [compound 782, 4-(1,4-dioxa-8-azaspiro[4.5]decan-8-yl)-1-(4-fluorophenyl)-3-(propan-2-yl)-1H-pyrazolo[3,4-b]pyridine-6-carboxylic acid], the “% Activation” value on ΔF508-CFTR [1] amounted to 345.2%; at ΔF508-CFTR [2] (setting [3]), 174.4%. The EC50 was found to be 272 nM on ΔF508-CFTR [1] and 673 nM at ΔF508-CFTR [2] (setting [3]).

Consider `O=C(O)c1cc(-c2ccc(N3CCOCC3)cc2)c2c(C3CCCO3)nn(-c3ccccc3)c2n1` (stereo not shown) [compound 186, 4-[4-(morpholin-4-yl)phenyl]-3-(oxolan-2-yl)-1-phenyl-1H-pyrazolo[3,4-b]pyridine-6-carboxylic acid], for which the results for the “% Activation” value at ΔF508-CFTR [1] and on ΔF508-CFTR [2] (setting [4]) were 378.4% and 168.7%, respectively. Besides, the EC50 turned out to be 1260 nM on ΔF508-CFTR [1] and 1870 nM at ΔF508-CFTR [2] (setting [5]).

`O=C1CC[C@H](COc2cc(C(=O)O)nc3c2c(C2CCC2)nn3-c2ccccc2)N1` [compound 617, 3-cyclobutyl-4-{[(2R)-5-oxopyrrolidin-2-yl]methoxy}-1-phenyl-1H-pyrazolo[3,4-b]pyridine-6-carboxylic acid]: at ΔF508-CFTR [1], the “% Activation” value is reported as 127.3% and the EC50 is over 10000 nM. Further, on ΔF508-CFTR [2] (setting [3]), the “% Activation” value came out at 7.139% and the EC50 is over 10000 nM.

Consider `CN1CCN(Cc2cc(C(=O)O)nc3c2c(C2CCC2)nn3-c2ccc(F)cc2)CC1` [compound 858, 3-cyclobutyl-1-(4-fluorophenyl)-4-[(4-methylpiperazin-1-yl)methyl]-1H-pyrazolo[3,4-b]pyridine-6-carboxylic acid], for which, on ΔF508-CFTR [1], the “% Activation” value was found to be 168.6% and the EC50 was determined as 3180 nM. Moreover, the “% Activation” value at ΔF508-CFTR [2] (setting [3]) is 29.24%.

Consider `CC(C)c1nn(-c2ccc(F)cc2)c2nc(C(=O)O)cc(N3CCC(N4CCN(C)CC4)CC3)c12` [compound 753, 1-(4-fluorophenyl)-4-[4-(4-methylpiperazin-1-yl)piperidin-1-yl]-3-(propan-2-yl)-1H-pyrazolo[3,4-b]pyridine-6-carboxylic acid], for which, at ΔF508-CFTR [1], the “% Activation” value was found to be 377.6% and the EC50 amounted to 301 nM. Moreover, on ΔF508-CFTR [2] (setting [3]), the “% Activation” value was found to be 215% and the EC50 worked out at 1030 nM.
